Our source for the IC50 values is patent EP4813991A1 (iLeadBMS Co., Ltd., priority 2023, dated 2025).

Assay [1] deals with T1, CDK12 (Homo sapiens, UniProt Q9NYV4). Briefly: CDK12 kinase inhibitory activity assay (33P-ATP filter binding). The class given is biochemical. The procedure, abridged: (§1)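 Radiometric filter-binding read-out: after 20 min compound–enzyme/substrate pre-incubation across 9 concentrations, reaction started with ^33P-γ-ATP and run 120 min at room temperature. Filter-bound ^33P-substrate measured after 0.75 % phosphoric acid washes; remaining activity versus DMSO gives IC50.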
T1 sequence (Q9NYV4 whole entry, species assumed): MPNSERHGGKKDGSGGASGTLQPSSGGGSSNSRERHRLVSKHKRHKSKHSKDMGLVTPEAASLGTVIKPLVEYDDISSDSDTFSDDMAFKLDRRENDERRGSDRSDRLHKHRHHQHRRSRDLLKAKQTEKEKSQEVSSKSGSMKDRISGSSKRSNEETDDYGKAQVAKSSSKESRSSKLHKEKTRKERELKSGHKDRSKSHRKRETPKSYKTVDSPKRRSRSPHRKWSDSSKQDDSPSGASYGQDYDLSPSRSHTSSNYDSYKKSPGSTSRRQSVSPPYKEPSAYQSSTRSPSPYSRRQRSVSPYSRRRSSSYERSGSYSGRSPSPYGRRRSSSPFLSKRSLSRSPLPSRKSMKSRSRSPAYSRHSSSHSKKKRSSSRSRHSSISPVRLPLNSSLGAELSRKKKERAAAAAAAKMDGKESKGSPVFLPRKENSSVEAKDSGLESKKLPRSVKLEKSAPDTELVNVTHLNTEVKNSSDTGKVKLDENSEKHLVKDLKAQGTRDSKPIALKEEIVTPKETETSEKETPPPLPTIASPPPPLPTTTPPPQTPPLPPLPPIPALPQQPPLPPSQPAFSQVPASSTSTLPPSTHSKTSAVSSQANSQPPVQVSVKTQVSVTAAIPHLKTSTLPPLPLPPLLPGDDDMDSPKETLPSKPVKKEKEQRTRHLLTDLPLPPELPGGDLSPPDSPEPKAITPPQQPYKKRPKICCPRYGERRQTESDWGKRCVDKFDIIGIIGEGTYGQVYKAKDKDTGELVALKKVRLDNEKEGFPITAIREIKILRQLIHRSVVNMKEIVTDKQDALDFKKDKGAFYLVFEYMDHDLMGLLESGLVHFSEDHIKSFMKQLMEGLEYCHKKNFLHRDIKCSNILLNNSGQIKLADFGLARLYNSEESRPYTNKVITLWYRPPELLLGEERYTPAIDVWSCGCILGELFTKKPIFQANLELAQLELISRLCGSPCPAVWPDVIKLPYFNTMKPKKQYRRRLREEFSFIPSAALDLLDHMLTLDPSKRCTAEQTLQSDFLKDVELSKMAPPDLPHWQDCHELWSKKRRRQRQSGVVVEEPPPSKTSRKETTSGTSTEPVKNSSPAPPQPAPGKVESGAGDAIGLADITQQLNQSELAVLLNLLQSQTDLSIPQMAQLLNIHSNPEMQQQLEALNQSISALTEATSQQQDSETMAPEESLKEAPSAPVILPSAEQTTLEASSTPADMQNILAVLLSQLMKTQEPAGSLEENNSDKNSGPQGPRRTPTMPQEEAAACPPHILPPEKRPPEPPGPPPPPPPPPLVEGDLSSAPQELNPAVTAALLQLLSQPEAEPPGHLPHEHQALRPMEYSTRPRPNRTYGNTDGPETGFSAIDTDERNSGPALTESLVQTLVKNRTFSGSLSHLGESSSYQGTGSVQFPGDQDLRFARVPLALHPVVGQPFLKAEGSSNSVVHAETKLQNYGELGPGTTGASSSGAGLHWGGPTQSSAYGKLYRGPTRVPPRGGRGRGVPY
T1 sequence (O75909 whole entry partner, species assumed): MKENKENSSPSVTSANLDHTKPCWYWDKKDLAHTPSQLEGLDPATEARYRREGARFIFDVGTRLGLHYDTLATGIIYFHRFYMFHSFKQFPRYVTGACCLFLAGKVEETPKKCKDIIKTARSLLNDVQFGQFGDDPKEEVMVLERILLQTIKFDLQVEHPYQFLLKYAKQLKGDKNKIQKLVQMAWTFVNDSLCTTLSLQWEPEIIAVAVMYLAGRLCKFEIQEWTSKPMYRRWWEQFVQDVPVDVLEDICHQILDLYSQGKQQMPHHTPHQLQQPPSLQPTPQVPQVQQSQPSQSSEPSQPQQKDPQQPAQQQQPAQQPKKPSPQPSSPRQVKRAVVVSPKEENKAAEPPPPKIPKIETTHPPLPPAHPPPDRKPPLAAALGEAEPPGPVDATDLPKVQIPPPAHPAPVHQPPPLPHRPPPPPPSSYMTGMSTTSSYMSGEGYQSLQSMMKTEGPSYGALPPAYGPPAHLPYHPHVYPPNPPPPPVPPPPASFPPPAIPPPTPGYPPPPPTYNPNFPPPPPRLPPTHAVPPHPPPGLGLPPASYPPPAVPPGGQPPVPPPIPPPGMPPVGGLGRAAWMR

The target of another assay is CDK13 (Homo sapiens, UniProt Q14004). Kind of assay: CDK13 kinase inhibitory activity assay (33P-ATP filter binding). It counts as biochemical. The essentials: as §1
Sequence of CDK13 (Q14004 whole entry, species assumed): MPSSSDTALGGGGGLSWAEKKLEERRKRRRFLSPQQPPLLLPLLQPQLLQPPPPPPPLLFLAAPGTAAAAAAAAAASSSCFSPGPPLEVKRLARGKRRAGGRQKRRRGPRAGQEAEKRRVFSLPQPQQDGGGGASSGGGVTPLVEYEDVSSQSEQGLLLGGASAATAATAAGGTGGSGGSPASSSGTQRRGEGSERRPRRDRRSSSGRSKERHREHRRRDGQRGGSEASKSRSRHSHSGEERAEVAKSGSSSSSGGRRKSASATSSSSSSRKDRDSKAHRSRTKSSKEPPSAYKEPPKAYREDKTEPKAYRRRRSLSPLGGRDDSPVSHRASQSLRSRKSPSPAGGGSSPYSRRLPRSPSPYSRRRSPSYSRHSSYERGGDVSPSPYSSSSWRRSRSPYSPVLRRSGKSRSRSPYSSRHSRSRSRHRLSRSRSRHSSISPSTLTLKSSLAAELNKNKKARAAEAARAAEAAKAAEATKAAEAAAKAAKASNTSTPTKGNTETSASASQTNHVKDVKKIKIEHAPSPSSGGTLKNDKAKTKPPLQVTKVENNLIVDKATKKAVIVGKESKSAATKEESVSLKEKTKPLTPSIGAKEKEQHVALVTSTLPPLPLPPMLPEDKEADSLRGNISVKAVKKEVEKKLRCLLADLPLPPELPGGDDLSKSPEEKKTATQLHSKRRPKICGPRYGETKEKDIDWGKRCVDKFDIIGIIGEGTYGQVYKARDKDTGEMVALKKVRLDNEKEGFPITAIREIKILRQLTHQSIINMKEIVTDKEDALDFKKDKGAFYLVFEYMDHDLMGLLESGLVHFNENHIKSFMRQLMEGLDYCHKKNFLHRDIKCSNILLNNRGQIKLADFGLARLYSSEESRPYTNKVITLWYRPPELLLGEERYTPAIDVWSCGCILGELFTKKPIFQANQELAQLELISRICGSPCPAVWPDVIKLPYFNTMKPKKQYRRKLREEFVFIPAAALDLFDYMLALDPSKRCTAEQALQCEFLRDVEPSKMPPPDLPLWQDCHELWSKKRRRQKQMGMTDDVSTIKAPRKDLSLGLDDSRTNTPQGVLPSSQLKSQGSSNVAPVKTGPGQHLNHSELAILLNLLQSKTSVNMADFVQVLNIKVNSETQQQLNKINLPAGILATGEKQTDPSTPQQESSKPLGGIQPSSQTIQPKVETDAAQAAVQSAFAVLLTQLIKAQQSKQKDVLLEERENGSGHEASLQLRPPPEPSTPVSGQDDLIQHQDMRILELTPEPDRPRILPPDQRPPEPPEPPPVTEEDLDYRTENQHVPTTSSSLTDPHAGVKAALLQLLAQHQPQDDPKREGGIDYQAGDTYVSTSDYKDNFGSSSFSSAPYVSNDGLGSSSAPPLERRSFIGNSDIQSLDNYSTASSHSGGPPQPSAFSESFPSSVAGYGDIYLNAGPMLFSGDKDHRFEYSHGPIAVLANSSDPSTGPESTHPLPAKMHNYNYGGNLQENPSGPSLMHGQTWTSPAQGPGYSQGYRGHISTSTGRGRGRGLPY
Sequence of CDK13 (O75909 whole entry partner, species assumed): as the sequence (O75909 whole entry partner, species assumed) above
Assay [2] deals with MDA-MB-231 breast cancer cells. Briefly: Proliferation inhibitory activity assay against MDA-MB-231 breast cancer cells. It counts as cell-based. The settings on record: Homo sapiens, 72 hours, CellTiter Glo, relative IC50. The essentials: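 Cells grown in L-15 with 10% FBS at 37 °C, 0% CO2, then exposed next day to compounds at 9 concentrations (DMSO vehicle) for 72 h. Viability read by CellTiter Glo luminescence; relative IC50 from dose-response curve fit.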
Background: In ATP-based viability assays light output follows the ATP content of the culture.

In assay [3] the target is T1, CDK12. Kind of assay: Cellular CDK12 inhibitory activity assay (Ser2 phosphorylation of RNA polymerase II subunit B1 CTD in MDA-MB-231 cells). It counts as cell-based. Also noted: using MDA-MB-231 breast cancer cells; endogenous in cells; host or cells: MDA-MB-231. To be noted: MDA-MB-231 cells, 6 hours treatment; read-out: pRpbl CTD S2 IC50. The procedure, abridged: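 MDA-MB-231 cells in L-15 with 10 % FBS were treated with compound at 9 concentrations for 6 h at 37 °C, 0 % CO2. In-Cell Western read phospho-Ser2 and total RNA polymerase II CTD on a Li-COR Odyssey; IC50 from 4-parameter dose-response fit.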

[4] abbreviates: kinase reaction 120 minutes, 33P-gamma-ATP, read-out: CDK12 IC50.
The mark [5] stands for this setting: kinase reaction 120 minutes, 33P-gamma-ATP, read-out: CDK13 IC50.

Like-named read-outs stand apart in the source and are kept apart here.

Consider `C[C@@H]1CN(c2cc(NCc3nc4cc(Cl)c(Cl)cc4[nH]3)c3ncc(C(F)(F)F)n3n2)C[C@H](C)N1` [Example 39, N-((5,6-dichloro-1H-benzo[d]imidazol-2-yl)methyl)-6-((3S,5R)-3,5-dimethylpiperazin-1-yl)-3-(trifluoromethyl)imidazo[1,2-b]pyridazin-8-amine], for which the IC50 was less than 100 nM at CDK12 [1] (setting [4]), less than 100 nM at CDK13 (setting [5]), not above 50 nM in assay [2] and less than 300 nM on CDK12 [3].
As to `NC(=O)N1CCN(c2cc(NCc3nc4cc(Cl)c(Cl)cc4[nH]3)c3ncc(C(F)(F)F)n3n2)CC1` [Example 66, 4-(8-(((5,6-dichloro-1H-benzo[d]imidazol-2-yl)methyl)amino)-3-(trifluoromethyl)imidazo[1,2-b]pyridazin-6-yl)piperazine-1-carboxamide], the IC50 on CDK12 [1] (setting [4]) was less than 100 nM; on CDK13, less than 100 nM; in assay [2] it was 50 to 500 nM; on CDK12 [3], less than 300 nM.
Take `OC1CC2(C1)CN(c1cc(NCc3nc4cc(Cl)c(Cl)cc4[nH]3)c3ncc(C(F)(F)F)n3n1)C2` [Example 47, 2-(8-(((5,6-dichloro-1H-benzo[d]imidazol-2-yl)methyl)amino)-3-(trifluoromethyl)imidazo[1,2-b]pyridazin-6-yl)-2-azaspiro[3.3]heptan-6-ol]: the IC50 is 100 to 500 nM on CDK12 [1] (setting [4]), less than 100 nM at CDK13 (setting [5]), not above 50 nM in assay [2] and less than 300 nM on CDK12 [3].
On the same counts, the results for `Cc1cc2[nH]c(CNc3cc(N4CCOCC4)nn4c(C(F)(F)F)cnc34)nc2cc1Cl` [Example 79, N-((5-chloro-6-methyl-1H-benzo[d]imidazol-2-yl)methyl)-6-morpholino-3-(trifluoromethyl)imidazo[1,2-b]pyridazin-8-amine] are less than 100 nM, less than 100 nM, not above 50 nM and less than 300 nM.
As for `Nc1ncc(-c2cc(NCc3nc4ccc(F)c(F)c4[nH]3)c3ncc(C#CC4CC4)n3n2)cn1` [Example 21, 6-(2-aminopyrimidin-5-yl)-3-(cyclopropylethynyl)-N-((6,7-difluoro-1H-benzo[d]imidazol-2-yl)methyl)imidazo[1,2-b]pyridazin-8-amine], the IC50 at CDK12 [1] (setting [4]) is more than 500 nM; on CDK13 (setting [5]), more than 500 nM; in assay [2], more than 500 nM; on CDK12 [3], more than 3000 nM.
`FC(F)(F)c1cnc2c(NCc3nc4cc(Cl)c(Cl)cc4[nH]3)cc(N3CCNCC3)nn12` [Example 57, N-((5,6-dichloro-1H-benzo[d]imidazol-2-yl)methyl)-6-(piperazin-1-yl)-3-(trifluoromethyl)imidazo[1,2-b]pyridazin-8-amine]: the half-maximal inhibitory concentration (IC50) was less than 100 nM at CDK12 [1] (setting [4]), less than 100 nM on CDK13 (setting [5]), not above 50 nM in assay [2] and less than 300 nM at CDK12 [3].
For `NC(=O)C1CCN(c2cc(NCc3nc4cc(Cl)c(Cl)cc4[nH]3)c3ncc(C(F)(F)F)n3n2)CC1` [Example 67, 1-(8-(((5,6-dichloro-1H-benzo[d]imidazol-2-yl)methyl)amino)-3-(trifluoromethyl)imidazo[1,2-b]pyridazin-6-yl)piperidine-4-carboxamide], the IC50 at CDK12 [1] (setting [4]) is less than 100 nM; on CDK13 (setting [5]), less than 100 nM; in assay [2], 50 to 500 nM; on CDK12 [3] it was less than 300 nM.
Consider `O[C@H]1CCN(c2cc(NCc3nc4cc(Cl)c(Cl)cc4[nH]3)c3ncc(C(F)(F)F)n3n2)C1` [Example 63, (S)-1-(8-(((5,6-dichloro-1H-benzo[d]imidazol-2-yl)methyl)amino)-3-(trifluoromethyl)imidazo[1,2-b]pyridazin-6-yl)pyrrolidin-3-ol], for which the IC50 at CDK12 [1] (setting [4]) was 100 to 500 nM; at CDK13, less than 100 nM; in assay [2] it was 50 to 500 nM; on CDK12 [3], less than 300 nM.
With `Fc1ccc2nc(CNc3cc(N4CCC4)nn4c(C(F)(F)F)cnc34)[nH]c2c1F` [Example 15], the IC50 at CDK12 [1] (setting [4]) was 100 to 500 nM; at CDK13 (setting [5]), less than 100 nM; in assay [2], not above 50 nM; at CDK12 [3] it was 300 to 3000 nM.
`FC(F)(F)c1cnc2c(NCc3cc4ncccn4n3)cc(N3CCOCC3)nn12` [Example 89, 6-morpholino-N-(pyrazolo[1,5-a]pyrimidin-2-ylmethyl)-3-(trifluoromethyl)imidazo[1,2-b]pyridazin-8-amine]: the IC50 was less than 100 nM on CDK12 [1] (setting [4]), less than 100 nM on CDK13, more than 500 nM in assay [2] and more than 3000 nM on CDK12 [3].
`CC1(O)CC2CCC(C1)N2c1cc(NCc2nc3cc(Cl)c(Cl)cc3[nH]2)c2ncc(C(F)(F)F)n2n1` (stereo not shown) [Example 34]: the IC50 is more than 500 nM on CDK12 [1], 100 to 500 nM at CDK13 (setting [5]), 50 to 500 nM in assay [2] and less than 300 nM at CDK12 [3].
Take `Fc1ccc2nc(CNc3cc(N4CC5CCC4CO5)nn4c(C(F)(F)F)cnc34)[nH]c2c1F` (stereo not shown) [Example 12]: the IC50 on CDK12 [1] was less than 100 nM; on CDK13 (setting [5]), less than 100 nM; in assay [2] it was not above 50 nM; at CDK12 [3] it was less than 300 nM.
Regarding `FC(F)(F)c1cnc2c(NCc3nc4cc(Cl)c(Cl)cc4[nH]3)cc(N3CC4(CNC4)C3)nn12` [Example 45, N-((5,6-dichloro-1H-benzo[d]imidazol-2-yl)methyl)-6-(2,6-diazaspiro[3.3]heptan-2-yl)-3-(trifluoromethyl)imidazo[1,2-b]pyridazin-8-amine], the IC50 was 100 to 500 nM on CDK12 [1] (setting [4]), less than 100 nM at CDK13 (setting [5]), not above 50 nM in assay [2] and less than 300 nM on CDK12 [3].
Consider `CN1C2CC1CN(c1cc(NCc3nc4cc(Cl)c(Cl)cc4[nH]3)c3ncc(C(F)(F)F)n3n1)C2` [Example 98, N-((5,6-dichloro-1H-benzo[d]imidazol-2-yl)methyl)-6-(6-methyl-3,6-diazabicyclo[3.1.1]heptan-3-yl)-3-(trifluoromethyl)imidazo[1,2-b]pyridazin-8-amine], for which the IC50 was less than 100 nM at CDK12 [1] (setting [4]), less than 100 nM at CDK13 (setting [5]), not above 50 nM in assay [2] and less than 300 nM on CDK12 [3].
In the case of `CC#Cc1cnc2c(NCc3nc4ccc(F)c(F)c4[nH]3)cc(N3CCOCC3)nn12` [Example 24, N-((6,7-difluoro-1H-benzo[d]imidazol-2-yl)methyl)-6-morpholino-3-(prop-1-yn-1-yl)imidazo[1,2-b]pyridazin-8-amine], the IC50 on CDK12 [1] (setting [4]) was more than 500 nM; at CDK13 (setting [5]) it was 100 to 500 nM; in assay [2], more than 500 nM; at CDK12 [3], more than 3000 nM.
With `FC(F)(F)c1cnc2c(NCc3nc4cc(Cl)c(Cl)cc4[nH]3)cc(N3CC4CCC(C3)N4)nn12` [Example 94, 6-(3,8-diazabicyclo[3.2.1]octan-3-yl)-N-((5,6-dichloro-1H-benzo[d]imidazol-2-yl)methyl)-3-(trifluoromethyl)imidazo[1,2-b]pyridazin-8-amine], the IC50 was less than 100 nM on CDK12 [1] (setting [4]), less than 100 nM on CDK13 (setting [5]), not above 50 nM in assay [2] and less than 300 nM on CDK12 [3].
For `O=C(CO)NC1CN(c2cc(NCc3nc4cc(Cl)c(Cl)cc4[nH]3)c3ncc(C(F)(F)F)n3n2)C1` [Example 103, N-(1-(8-(((5,6-dichloro-1H-benzo[d]imidazol-2-yl)methyl)amino)-3-(trifluoromethyl)imidazo[1,2-b]pyridazin-6-yl)azetidin-3-yl)-2-hydroxyacetamide], the IC50 on CDK12 [1] (setting [4]) is less than 100 nM; at CDK13 (setting [5]) it was less than 100 nM; in assay [2] it was 50 to 500 nM; on CDK12 [3] it was 300 to 3000 nM.
`FC(F)(F)c1cc2nc(CNc3cc(N4CCOCC4)nn4c(C(F)(F)F)cnc34)[nH]c2cc1C(F)(F)F` [Example 81, N-((5,6-bis(trifluoromethyl)-1H-benzo[d]imidazol-2-yl)methyl)-6-morpholino-3-(trifluoromethyl)imidazo[1,2-b]pyridazin-8-amine]: the IC50 at CDK12 [1] (setting [4]) was more than 500 nM; on CDK13 (setting [5]), 100 to 500 nM; in assay [2], 50 to 500 nM; at CDK12 [3], 300 to 3000 nM.
Consider `FC(F)(F)c1cnc2c(NCc3nc4cc(Cl)c(Cl)cc4[nH]3)cc(N3CC4CC(C4)C3)nn12` [Example 31, 6-(3-azabicyclo[3.1.1]heptan-3-yl)-N-((5,6-dichloro-1H-benzo[d]imidazol-2-yl)methyl)-3-(trifluoromethyl)imidazo[1,2-b]pyridazin-8-amine], for which the IC50 on CDK12 [1] (setting [4]) was more than 500 nM; on CDK13 (setting [5]) it was 100 to 500 nM; in assay [2], more than 500 nM; at CDK12 [3], 300 to 3000 nM.

One may read the IC50 as the concentration that gives 50% inhibition.
